Where a name gives a salt, the structure may show the parent alone. Read-outs that look alike come from different tables or passages of the source.

For one assay, the system named is Pythium aphanidermatum. The assay is described as follows: cucumber damping-off, pot test: soil drench of D-tagatose combined with fungicides. To be noted: for Preventive value: alone, soil drench.
The subject of another assay is Phytophthora infestans. The assay is described as follows: whole plant or invertebrate. To be noted: for Preventive value: alone. The class given is in vivo.
In assay [1] the test system is Erysiphe graminis f.sp. hordei. The note with it: for Preventive value: barley, compound alone.
Experimental: Test plants (barley, variety: Akashinriki) were seeded and grown until the one leaf stage. D-tagatose and fungicide were diluted to 5000 ppm and the concentrations listed in table 21, respectively, with distilled water and 10 ml of the dilution was sprayed thoroughly on the plants. Three days after spraying, a condia suspension of Erysiphe graminis f.sp. hordei was inoculated by spraying on test plants. 7 days after inoculation the disease severity of the test plants was observed and the effectiveness of test sample was judged.
The test system of the next assay is Plasmopara viticola. To be noted: for Preventive value: alone.
For the next assay, the system named is Sphaerotheca fuliginea. To be noted: for Preventive value: cucumber, compound alone.
The test system of the next assay is Puccinia recondita. The note with it: for Preventive value: wheat, compound alone; for pest or weed control at 250 ppm / pest or weed control at 2 ppm / pest or weed control at 50 ppm: Puccinia recondita, in Triticum aestivum, 168 h, read-out: Preventive value.
Assay [2] deals with Pseudoperonospora cubensis. To be noted: for Preventive value: alone.
Experimental: Test plants (cucumber, variety: Sagami hanpaku) were seeded and grown until the one true leaf stage. D-Tagatose was diluted to 5000 ppm and the fungicides were diluted to the concentrations listed in table 14, with distilled water. And then 10 ml of the dilution was sprayed on the test plant. Three days after spraying of the solution, a sporangium suspension of Pseudoperonospora cubensis containing 1×10^3/ml were inoculated by spraying on test plants and then put for 16 hours in an inoculation chamber (20° C. to 23° C.) to promote disease. Seven days after inoculation the disease severity of the test plants was observed and the effectiveness of the test sample was judged. Tests were carried out using two plants for each test set and the disease severity of the test plants was judged in accordance with the following criteria. The preventive value was calculated from the degree of disease severity.
0 (No lesion) 1 (Lesion area was not more than 40%) 2 ((Lesion area was 40%-80%) 3 (Lesion area was not less than 80%)
Preventive value=100{1−(n/N)} N=disease severity of untreated leaf, n=disease severity of the test leaf Synergistic effect was determined by Colby's equation.
The next assay relates to Botrytis cinerea. The note with it: for Preventive value: tomato, compound alone.
In assay [3] the test system is Pseudoperonospora cubensis. The note with it: for Preventive value: alone, curative.
Experimental: Test plants (cucumber, variety: Sagami hanpaku) were seeded and grown until the one true leaf stage. And then, a sporangium suspension of Pseudoperonospora cubensis containing 1×10^3/ml were spraying for inoculation on the back side of the leaves of test plants and then put for 16 hours in an inoculation chamber (20° C. to 23° C.) to promote disease. For a curative test, the inoculated plants as described above were used.
D-Tagatose was diluted to 5000 ppm and the fungicides were diluted to the concentrations listed in table 15, with distilled water, and 10 ml of the dilution was sprayed. Seven days after inoculation the disease severity of the test plants was observed and the effectiveness of test sample was judged.
The test system of a further assay is Pyricularia oryze. The assay is described as follows: whole plant or invertebrate. To be noted: for Preventive value: rice, compound alone; for pest or weed control at 10 ppm / pest or weed control at 250 ppm: Pyricularia, in Oryza sativa, 168 h, read-out: Preventive value. The class given is in vivo.
Where [4] appears, read: Phytophthora infestans, in Solanum lycopersicum, 168 h, read-out: Preventive value.
Where [5] appears, read: Blumeria graminis, in Hordeum vulgare, 168 h, read-out: Preventive value.
Where [6] appears, read: Plasmopara viticola, 168 h, read-out: Preventive value.
Setting [7] is: Pythium aphanidermatum, in Cucumis sativus, soil, 336 h, read-out: Preventive value.
Setting [8] is: Podosphaera fuliginea, in Cucumis sativus, 168 h, read-out: Preventive value.
Where [9] appears, read: Pseudoperonospora cubensis, in Cucumis sativus, 168 h, read-out: Preventive value.
Setting [10] is: Botrytis cinerea, in Solanum lycopersicum, 168 h, read-out: Preventive value.

Experimental for Botrytis cinerea: Test plants (tomato, variety: Ogata-fukujyu) were seeded and grown until the three leaf stage. D-Tagatose and fungicide were diluted to 10000 ppm and the concentrations liste in table 23, respectively, with distilled water and 10 ml of the dilution was sprayed on the plants. Three days after spraying the solution, condia suspension of Botrytis cinerea were inoculated by spraying on test plants and then put for 16 hours in an inoculation chamber (20° C. to 23° C.) to promote disease. Seven days after inoculation, the disease severity of the test plants was observed and the effectiveness of test sample was judged.
Experimental for Plasmopara viticola: Test plants (variety: Neo Muscat) were seeded and grown until three leaves. D-Tagatose was diluted to 5000 ppm and the fungicides were diluted to the concentrations listed in table 16, with distilled water, and 10 ml of the dilution was sprayed on the plants. Three days after the spraying of the dilution, the plants were infected by spraying a sporangium suspension of Plasmopara viticola containing 1×10^3/ml and then put for 16 hours in an inoculation chamber (20° C. to 23° C.) to promote disease. The disease severity of the test plants was observed 7 days after inoculation, and the effectiveness of test sample was judged.
Experimental for Puccinia recondita: Test plants (variety: Nourin 61 gou) were sowed and grown until two leaves stage.
D-Tagatose and fungicide were diluted to 10000 ppm and the concentration listed in table 19, respectively, with distilled water, and 10 ml of the dilution was sprayed thoroughly on the plants. Three days after the spraying of the dilution, the plants were inoculated with Puccinia recondita containing 1×10^3/ml and then put for 16 hours in an inoculation chamber (20° C. to 23° C.) to promote disease. Seven days after inoculation the disease severity of the test plants was observed and the effectiveness of test sample was judged.
Experimental for Pythium aphanidermatum: Five seeds of test plants (cucumber, variety: Sagami hanpaku) were sowed in a pot (5×5 cm), which contains infested soil with Pythium aphanidermatum (mycelium 100 g/1 L soil) and was covered with soil. D-Tagatose was diluted to 5000 ppm and the fungicides were diluted to the concentrations listed in table 18, with distilled water. The pot was drenched with 10 ml of the dilution. After 2 weeks, the disease severity of the test plants was observed and the effectiveness of test sample was judged. Tests were carried out in triplicate using 5 plants for each test set and the preventive value was calculated from the germination rate.
Experimental for Sphaerotheca fuliginea: Test plants (cucumber, variety: Sagami hanpaku) were seeded and grown until the one true leaf stage. D-Tagatose and fungicide were diluted to 5000 ppm and the concentrations listed in table 20, respectively, with distilled water and 10 ml of the dilution was sprayed thoroughly on the plants. Three days after spraying, a condia suspension containing of Sphaerotheca fuliginea were inoculated by spraying on test plants.
Seven days after inoculation the disease severity of the test plants was observed and the effectiveness of test sample was judged.

Regarding `Cc1c(Br)c2ccc(F)cc2n1S(=O)(=O)c1ncn(S(=O)(=O)N(C)C)n1` [amisulbrom], the Preventive value with Pythium aphanidermatum (50 ppm) came to 83.

Regarding `CO/C=C(/C(=O)OC)c1ccccc1Oc1cc(Oc2ccccc2C#N)ncn1` [azoxystrobin], the Preventive value turned out to be 83 with Phytophthora infestans (10 ppm); 50 in assay [1] (0.4 ppm); 83 in the assay with Plasmopara viticola (10 ppm); 50 in the assay on Pythium aphanidermatum (50 ppm); 67 in the assay on Sphaerotheca fuliginea (0.4 ppm); 83 in the assay on Puccinia recondita (2 ppm). Further, the Preventive value was found to be 50 in [2] (10 ppm), 50 in the assay on Botrytis cinerea (50 ppm), 50 in [3] (10 ppm) and 83 in the assay with Pyricularia oryze (10 ppm).

As for `CC(C)OC(=O)N[C@H](C(=O)N[C@H](C)c1nc2ccc(F)cc2s1)C(C)C` [benthiavalicarb-isopropyl], the pest or weed control at 0.4 ppm was 73% in the assay on Phytophthora infestans (setting [4]), 50% with Plasmopara viticola (setting [6]), 73% in [2] (setting [9]) and 33% in [3] (setting [9]). In addition, the pest or weed control at 250 ppm (in assay [1] (setting [5]); with Pythium aphanidermatum (setting [7]); with Sphaerotheca fuliginea (setting [8]); with Puccinia recondita; with Botrytis cinerea (setting [10])) was 0% each time.

As to `O=C(Nc1ccccc1-c1ccc(Cl)cc1)c1cccnc1Cl` [boscalid], the pest or weed control at 0.4 ppm in assay [1] (setting [5]) turned out to be 17%; in the assay with Sphaerotheca fuliginea (setting [8]) it was 67%. Further, the pest or weed control at 2 ppm in the assay on Puccinia recondita was found to be 67%. Also, in the assay with Botrytis cinerea (setting [10]), the pest or weed control at 10 ppm amounted to 67%.

Regarding `N#Cc1c(Cl)c(Cl)c(Cl)c(C#N)c1Cl` [chlorothalonil], the pest or weed control at 50 ppm with Phytophthora infestans (setting [4]) is 83%; in assay [1] (setting [5]), 33%; in the assay with Plasmopara viticola (setting [6]), 73%; in the assay with Sphaerotheca fuliginea (setting [8]) it was 50%; in the assay on Puccinia recondita, 83%; in assay [2] (setting [9]), 83%. The pest or weed control at 50 ppm in the assay on Botrytis cinerea (setting [10]) amounted to 67%; in assay [3] (setting [9]) it was 0%.

As to `[Cu+2].[OH-].[OH-]` [cupric hydroxide], the Preventive value came out at 50 in the assay on Phytophthora infestans (50 ppm), 0 in the assay on Plasmopara viticola (50 ppm), 40 in [2] (50 ppm) and 0 in assay [3] (50 ppm).

With `O=C(Cc1ccccc1)N/C(=N\OCC1CC1)c1c(C(F)(F)F)ccc(F)c1F` [cyflufenamid], the pest or weed control at 0.4 ppm in [1] (setting [5]) stood at 67%; in the assay on Sphaerotheca fuliginea (setting [8]) it was 50%.

As to `CCNC(=O)NC(=O)/C(C#N)=N/OC` [cymoxanil], the pest or weed control at 50 ppm came to 83% in the assay on Phytophthora infestans (setting [4]), 73% in the assay with Plasmopara viticola (setting [6]), 33% in assay [2] (setting [9]) and 83% in assay [3] (setting [9]). In addition, the pest or weed control at 250 ppm in the assay on Pythium aphanidermatum (setting [7]) stood at 17%.

With `COc1ccc(C(=CC(=O)N2CCOCC2)c2ccc(Cl)cc2)cc1OC` [dimethomorph], the pest or weed control at 10 ppm was 73% with Phytophthora infestans (setting [4]), 50% with Plasmopara viticola (setting [6]), 67% in [2] (setting [9]) and 40% in [3] (setting [9]). Further, the pest or weed control at 250 ppm in the assay with Pythium aphanidermatum (setting [7]) was determined as 0%.

On to `CSC1=N[C@@](C)(c2ccccc2)C(=O)N1Nc1ccccc1` [fenamidone], for which the pest or weed control at 2 ppm with Phytophthora infestans (setting [4]) was 83%; in the assay on Plasmopara viticola (setting [6]), 83%; in assay [2] (setting [9]), 33%; in [3] (setting [9]) it was 33%. In the assay on Pythium aphanidermatum (setting [7]), the pest or weed control at 10 ppm came out at 50%.

Consider `O=[N+]([O-])c1cc(C(F)(F)F)c(Cl)c([N+](=O)[O-])c1Nc1ncc(C(F)(F)F)cc1Cl` [fluazinam], for which the pest or weed control at 10 ppm is 83% in the assay with Phytophthora infestans (setting [4]); 83% in the assay with Plasmopara viticola (setting [6]); 97% in [2] (setting [9]); 0% in assay [3] (setting [9]); 50% in the assay on Pyricularia oryze. Further, the pest or weed control at 250 ppm (in [1] (setting [5]); with Sphaerotheca fuliginea (setting [8])) was 83% in each case. The results for the pest or weed control at 50 ppm with Puccinia recondita and with Botrytis cinerea (setting [10]) were 83% and 67%, respectively.

Consider `O=C(NCc1ncc(C(F)(F)F)cc1Cl)c1c(Cl)cccc1Cl` [fluopicolide], for which the Preventive value in the assay on Phytophthora infestans (10 ppm) is recorded as 83; in the assay with Plasmopara viticola (10 ppm) it was 73; in the assay on Pythium aphanidermatum (250 ppm), 83; in [2] (10 ppm) it was 83; in [3] (10 ppm), 83; in the assay on Pyricularia oryze (250 ppm), 0.

As to `CCO[PH](=O)O` [fosethyl], the Preventive value with Phytophthora infestans (250 ppm) was 33; in assay [1] (250 ppm) it was 17; in the assay with Plasmopara viticola (250 ppm), 0; with Pythium aphanidermatum (250 ppm), 0; with Sphaerotheca fuliginea (250 ppm), 17; with Puccinia recondita (250 ppm) it was 0. Moreover, the Preventive value in assay [2] (250 ppm) and in [3] (250 ppm) was 0 throughout.

`O=C1OCc2c(Cl)c(Cl)c(Cl)c(Cl)c21` [fthalide]: the pest or weed control at 10 ppm in the assay on Pyricularia oryze stood at 50%.

Take `CCCCCCCCCCCCc1ccc(S(=O)(=O)O)cc1.CCCCCCCCCCCCc1ccc(S(=O)(=O)O)cc1.CCCCCCCCCCCCc1ccc(S(=O)(=O)O)cc1.NC(N)=NCCCCCCCCNCCCCCCCCN=C(N)N` [iminoctadine albesilate]: the Preventive value is reported as 0 in the assay with Phytophthora infestans (250 ppm); 17 in assay [1] (50 ppm); 0 with Plasmopara viticola (250 ppm); 83 in the assay on Sphaerotheca fuliginea (50 ppm); 40 in the assay with Puccinia recondita (250 ppm); 40 in assay [2] (250 ppm). Further, the values for the Preventive value (in the assay with Botrytis cinerea (10 ppm); in [3] (250 ppm); in the assay on Pyricularia oryze (250 ppm)) were 67, 0 and 50, respectively.

In the case of `CC(C)NC(=O)N1CC(=O)N(c2cc(Cl)cc(Cl)c2)C1=O` [iprodione], the pest or weed control at 250 ppm is 17% in assay [1] (setting [5]), 33% in the assay with Sphaerotheca fuliginea (setting [8]), 33% with Puccinia recondita and 0% in the assay with Pyricularia oryze. For the same compound, the pest or weed control at 2 ppm with Botrytis cinerea (setting [10]) was 40%.

For `C[C@H]1O[C@H](O[C@H]2[C@H](O)[C@@H](O)[C@@H](O)[C@H](O)[C@@H]2O)[C@@H](N)C[C@@H]1NC(=N)C(=O)O` [kasugamycin], the Preventive value with Pyricularia oryze (10 ppm) is 73.

For `C#CCOc1ccc(CCNC(=O)C(OCC#C)c2ccc(Cl)cc2)cc1OC` (centres unmarked) [mandipropamid], the Preventive value in the assay with Phytophthora infestans (0.4 ppm) was determined as 73; in the assay with Plasmopara viticola (0.4 ppm), 73; in [2] (0.4 ppm), 67; in assay [3] (0.4 ppm) it was 40.

`CCCOC(=O)NCCCN(C)C` [propamocarb hydrochloride]: the pest or weed control at 250 ppm amounted to 67% with Phytophthora infestans (setting [4]); 33% with Plasmopara viticola (setting [6]); 0% in the assay with Pythium aphanidermatum (setting [7]); 67% in [2] (setting [9]); 40% in [3] (setting [9]).

Consider `Fc1ccc(Oc2ccnc3cc(Cl)cc(Cl)c23)cc1` [quinoxyfen], for which the figures for the pest or weed control at 2 ppm (in assay [1] (setting [5]); with Sphaerotheca fuliginea (setting [8])) were 93% and 83%, respectively. For the same compound, the pest or weed control at 250 ppm with Puccinia recondita and in the assay with Botrytis cinerea (setting [10]) was 0% throughout.

As to `Cc1cccc2sc3nncn3c12` [tricyclazole], in the assay on Pyricularia oryze, the pest or weed control at 10 ppm stood at 50%.

As for `CCCOC/C(=N\c1ccc(Cl)cc1C(F)(F)F)n1ccnc1` [triflumizole], the pest or weed control at 0.4 ppm in [1] (setting [5]) turned out to be 50%; in the assay with Sphaerotheca fuliginea (setting [8]) it was 97%. Moreover, the pest or weed control at 2 ppm in the assay with Puccinia recondita worked out at 40%. Further, in the assay on Botrytis cinerea (setting [10]), the pest or weed control at 50 ppm was found to be 67%.

On to `OCC1=C[C@H](N[C@H]2C[C@H](CO)[C@@H](O[C@@H]3O[C@H](CO)[C@@H](O)[C@H](O)[C@H]3O)[C@H](O)[C@H]2O)[C@H](O)[C@@H](O)[C@@H]1O` [validamycin], for which, in the assay with Pyricularia oryze, the pest or weed control at 10 ppm was determined as 50%.

Regarding `CCC(C)(NC(=O)c1cc(Cl)c(C)c(Cl)c1)C(=O)CCl` (centres unmarked) [zoxamide], the pest or weed control at 2 ppm in the assay with Phytophthora infestans (setting [4]) was determined as 50%; with Plasmopara viticola (setting [6]), 83%; in assay [2] (setting [9]), 67%; in assay [3] (setting [9]), 33%. For the same compound, the pest or weed control at 250 ppm with Pythium aphanidermatum (setting [7]) and with Pyricularia oryze was 0% in each case.

As for manzeb, the Preventive value with Phytophthora infestans (10 ppm) turned out to be 67; in assay [1] (50 ppm) it was 40; in the assay with Plasmopara viticola (10 ppm), 33; in the assay with Sphaerotheca fuliginea (50 ppm) it was 50; with Puccinia recondita (50 ppm), 83; in assay [2] (10 ppm), 90. Moreover, the Preventive value with Botrytis cinerea (50 ppm) is 40; in assay [3] (10 ppm), 0.

For the origin of these results see patent US20110281807A1, “PLANT DISEASE CONTROL AGENT COMPRISING D-TAGATOSE AS ACTIVE INGREDIENT, AND PLANT DISEASE CONTROL METHOD” (NATIONAL UNIVERSITY CORPORATION KAGAWA UNIVERSITY, priority 2008, published 2011).
